# According to article PMC6657233 (Translational Oncology, 2019):
# Molecular target: T1, adenosine transporter (AT; NBMPR-sensitive equilibrative nucleoside transporter subtype, ENT) (Homo sapiens, UniProt Q99808)
# T1 sequence (Q99808 2-456): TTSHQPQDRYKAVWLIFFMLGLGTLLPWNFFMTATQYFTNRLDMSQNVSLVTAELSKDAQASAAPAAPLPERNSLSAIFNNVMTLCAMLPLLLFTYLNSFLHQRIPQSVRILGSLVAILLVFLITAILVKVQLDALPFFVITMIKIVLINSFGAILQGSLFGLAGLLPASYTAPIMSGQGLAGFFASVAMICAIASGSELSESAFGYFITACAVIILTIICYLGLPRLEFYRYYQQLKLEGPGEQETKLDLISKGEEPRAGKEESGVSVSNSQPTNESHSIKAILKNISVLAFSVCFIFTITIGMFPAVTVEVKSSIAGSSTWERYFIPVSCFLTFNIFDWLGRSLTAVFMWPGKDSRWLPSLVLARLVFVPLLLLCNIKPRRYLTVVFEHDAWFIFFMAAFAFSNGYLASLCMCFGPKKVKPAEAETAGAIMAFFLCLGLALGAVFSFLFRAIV
# Assay: [3H]adenosine uptake inhibition in HeLa cells
# Assay type: cell-based
# Conditions: read-out: Findings
compound,measurement,value
COCCOc1cnc2ccn([C@H](C)c3nnc4c(F)cc(-c5cnn(C)c5)cn34)c(=O)c2c1 [AMG 337],IC50,280 nM
